From patent US10683278B2 (JINAN UNIVERSITY, priority 2015, dated 2020)
Read-outs that look alike come from different tables or passages of the source.

Legend:
[1] = molecular target: T1, AXL kinase (Homo sapiens, UniProt P30530); experiment: IC50 test on AXL kinase (Z′-LYTE FRET kinase activity detection); type: biochemical; details: for IC50: Z′-LYTE FRET peptide assay, 1 h reaction
T1 construct: purchased Invitrogen PV4803
T1 sequence (P30530 26-894): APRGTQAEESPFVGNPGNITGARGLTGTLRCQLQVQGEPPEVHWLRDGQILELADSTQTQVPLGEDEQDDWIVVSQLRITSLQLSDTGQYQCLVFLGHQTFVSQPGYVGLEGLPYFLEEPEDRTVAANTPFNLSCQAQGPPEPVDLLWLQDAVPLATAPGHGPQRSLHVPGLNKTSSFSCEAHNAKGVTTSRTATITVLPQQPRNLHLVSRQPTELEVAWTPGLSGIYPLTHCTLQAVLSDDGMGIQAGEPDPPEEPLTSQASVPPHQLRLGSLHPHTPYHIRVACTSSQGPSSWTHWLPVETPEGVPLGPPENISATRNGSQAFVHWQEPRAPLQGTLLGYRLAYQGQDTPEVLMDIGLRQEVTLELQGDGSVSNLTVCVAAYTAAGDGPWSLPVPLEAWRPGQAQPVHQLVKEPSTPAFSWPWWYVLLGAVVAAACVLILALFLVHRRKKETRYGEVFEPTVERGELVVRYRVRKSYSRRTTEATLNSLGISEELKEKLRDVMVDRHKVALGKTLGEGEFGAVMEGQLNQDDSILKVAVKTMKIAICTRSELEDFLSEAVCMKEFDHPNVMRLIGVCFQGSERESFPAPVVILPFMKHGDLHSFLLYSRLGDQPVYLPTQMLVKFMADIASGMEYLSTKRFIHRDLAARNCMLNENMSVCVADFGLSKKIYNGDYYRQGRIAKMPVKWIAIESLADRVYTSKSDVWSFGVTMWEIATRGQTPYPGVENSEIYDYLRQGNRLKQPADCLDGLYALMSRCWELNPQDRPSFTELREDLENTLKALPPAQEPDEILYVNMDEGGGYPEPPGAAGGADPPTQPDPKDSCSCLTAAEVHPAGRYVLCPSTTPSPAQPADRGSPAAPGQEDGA
In short: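 AXL kinase with Z′-LYTE Tyr 2 FRET peptide, ATP and graded compound concentrations reacted 1 h, then site-specific protease cleaved non-phosphorylated peptide for 1 h. Emission at 445 and 520 nm with 400 nm excitation gave the IC50.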

[2] = molecular target: T2, FLT-3 kinase domain recombinant protein (Homo sapiens, UniProt P36888); experiment: Inhibition rate on FLT3 kinase (ELISA); type: biochemical; details: two values per compound; for inhibition at 0.01 µM / inhibition at 0.1 µM / inhibition at 1 µM: read-out: Inhibition rate (%) against receptor tyrosine kinase FLT-3
T2 construct: 50 μL FLT-3 kinase domain recombinant protein diluted with reaction buffer to initiate the reaction
T2 sequence (P36888 610-943 limits assumed): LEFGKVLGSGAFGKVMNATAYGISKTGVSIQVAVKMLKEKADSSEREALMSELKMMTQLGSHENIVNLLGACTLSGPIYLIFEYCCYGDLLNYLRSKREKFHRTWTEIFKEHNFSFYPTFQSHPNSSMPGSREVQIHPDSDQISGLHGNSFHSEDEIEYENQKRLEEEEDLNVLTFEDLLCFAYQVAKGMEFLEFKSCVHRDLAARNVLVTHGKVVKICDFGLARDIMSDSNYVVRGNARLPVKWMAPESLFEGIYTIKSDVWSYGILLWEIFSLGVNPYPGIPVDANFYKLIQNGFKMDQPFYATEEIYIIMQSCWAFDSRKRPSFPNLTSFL
Procedure: Conventional enzyme-linked immunosorbent assay (ELISA) method is used, and the specific steps are as follows
12,000 g of compounds were centrifuged for 5 min, DMSO was added to make a 10^−2M stock solution, vortexed uniformly and sonicated for 10 min for standby application, and stored at −40° C. The compounds were diluted from the stock solution with DMSO to 100 times the concentration to be tested (concentration of DMSO in the system being 1%) during the test.
1. The enzyme reaction substrate Poly (Glu, Tyr) 4:1 was diluted to 20 μg/mL with potassium-free PBS (10 mM sodium phosphate buffer, 150 mM NaCl, pH 7.2-7.4), the ELISA plate was coated with same in 125 μL/well, and reacted at 37° C. for 12-16 hours, the liquid in wells was discarded, the plate was washed three times, for 5 minutes each time, with T-PBS (potassium-free PBS with 0.1% Tween-20, 200 μL/well), and the ELISA plate was dried in an oven at 37° C. for 1-2 hours.
2. To each well were added 49 μL of ATP solution diluted with reaction buffer (50 mM HEPES pH 7.4, 50 mM MgCl2, 0.5 mM MnCl2, 0.2 mM Na3VO4, 1 mM DTT), 1 μL of compounds to be tested, and 50 μL FLT-3 kinase domain recombinant protein diluted with reaction buffer to initiate the reaction (two ATP-free control wells are required for each experiment). Subject to a shaker (100 rpm) at 37° C. and reacted for 1 hour. The liquid in wells was discarded, and the plate was washed three times with T-PBS.
3. Antibody PY99 diluent (the antibody was diluted in 1:500 with T-PBS which contains 5 mg/mL BSA) was added in 100 μL/well, subjected same to a shaker at 37° C. and reacted for 0.5 hour. The liquid in wells was discarded, and the plate was washed three times with T-PBS.
4. Horseradish peroxidase labeled goat anti-mouse secondary antibody diluent (the antibody was diluted in 1:2000 with T-PBS which contains 5 mg/ml BSA) was added in 100 μL/well, subjected same to a shaker at 37° C. and reacted for 0.5 hour. The liquid in wells was discarded, and the plate was washed three times with T-PBS.
5. 2 mg/ml of OPD developing solution (diluted with 0.1 M citric acid-sodium citrate buffer which contains 0.03% H2O2 (pH=5.4)) was added in 100 μL/well, and reacted at 25° C. in the dark for 1-10 minutes.
6. 2 M H2SO4 was added in 50 μL/well to stop the reaction, and the reading from the wavelength-adjustable microwell plate ELIASA VERSAmax was performed with a wavelength of 490 nm.

[3] = In vivo pharmacokinetic and bioavailability experiments of rats; design: species or system SD rats; details: for bioavailability / AUC(0-inf) / AUC(0-t) / half-life / Cmax / clearance: Sprague-Dawley, rat, plasma; for bioavailability: po, 25 mg/kg, read-out: F (oral bioavailability); for Cmax: read-out: Cmax
Procedure: Pharmacokinetic and bioavailability experiments of rats. SD rats were administered orally (25 mg/kg) and intravenously (2.5 to 5 mg/kg) at a single dose. Animal blood samples were taken at appropriate time points after administration, heparin was added as anticoagulant, and same were centrifuged at 8000 rpm/min for 6 minutes, the supernatant was then taken and stored at −20° C. for HPLC-MS analysis. The proteins in blood samples were precipitated with acetonitrile at 12000 rpm for 10 min, and the supernatant was used for HPCL-MS analysis. Data were fit using DAS2.0 to obtain compartmental model and non-compartmental model parameters, respectively. The oral bioavailability of each compound was calculated according to AUC data.

[4] = system: Molm-13 cells; experiment: Inhibition of proliferation of Molm-13 cells (CCK-8); type: cell-based; details: Homo sapiens, 72 h, mean±standard deviation of two independent tests
Procedure: [Worded in the source for another cell line; this cell line is reported under the same test.] (§1) 12000 g of compounds were centrifuged for 5 min, DMSO was added to make a 10^−2M stock solution, vortexed uniformly and sonicated for 10 min for standby application, and stored at −40° C. The compounds were diluted from the stock solution with saline to 10 times the concentration to be tested (concentration of DMSO in the system being no more than 0.5%) during the test.
(§2) The inhibitory effect of the compounds on the proliferation of MV4-11 cells was detected using a CCK-8 cell counting kit (Dojindo). The specific steps are as follows: the MV4-11 cells in logarithmic growth phase were seeded into a 96-well culture plate at a suitable density in 90 μL/well, cultured overnight, compounds at different concentrations were then added and acted on cells for 72 hr, and the solvent control group (negative control) was set up. The effect of the compounds on cell proliferation was detected using a CCK-8 cell counting kit (Dojindo) after the compounds had acted on the cells for 72 h. 10 μL of CCK-8 reagent was added to each well, same was placed in an incubator at 37° C. for 2-4 hours, and the reading from the full-wavelength microwell plate ELIASA SpectraMax 190 was performed with a wavelength of 450 nm.
(§3) IC50 value was calculated using a software included with ELIASA by the four-parameter regression.
(§4) IC50 for the inhibition of the compounds on each stain of cells was derived from two independent repeated tests, and the results are shown as the mean±standard deviation.

[5] = system: MV4-11 cells; experiment: Inhibition of proliferation of MV4-11 cells (CCK-8); type: cell-based; details: Homo sapiens, 72 h, mean±standard deviation of two independent tests
Procedure: as §1, §2, §3, §4

[6] = SD rats, Po, 25 mg/kg single dose
[7] = SD rats, iv, 5 mg/kg single dose

Row | Structure (SMILES) | IC50 [1] | Inhibition rate (%) against receptor tyrosine kinase FLT-3 ([2]; compound 10 nM, 0.01 µM) | inhibition at 0.01 µM ([2]; compound 10 nM) | Inhibition rate (%) against receptor tyrosine kinase FLT-3 ([2]; compound 100 nM, 0.1 µM) | inhibition at 0.1 µM ([2]; compound 100 nM) | Inhibition rate (%) against receptor tyrosine kinase FLT-3 ([2]; compound 1000 nM, 1 µM) | inhibition at 1 µM ([2]; compound 1000 nM) | bioavailability [3] | AUC(0-inf) [3, 6] | AUC(0-t) [3, 6] | half-life [3, 6] | Cmax [3, 6] | AUC(0-inf) [3, 7] | AUC(0-t) [3, 7] | clearance [3, 7] | half-life [3, 7] | Cmax [3, 7] | IC50 [4] | also measured
1 | COc1cc2ncnc(Oc3ccc(NC(=O)c4cn(-c5ccc(F)cc5)c5cc(N6CCNCC6)c(F)cc5c4=O)cc3F)c2cc1OC [TL4830042, N-(4-(6,7-dimethoxyquinazolin-4-yloxy)-3-fluorophenyl)-6-fluoro-1-(4-fluorophenyl)-4-oxo-7-(piperazin-1-yl)-1,4-dihydroquinoline-3-carboxamide] | 38 nM | 40.0% | 52.3% | 44.5% | 53.8% | 87.0% | 92.3% | 0.2% | 151 ng·h/mL | 98.9 ng·h/mL | 14.5 h | 7.15 ng/mL | 15200 ng·h/mL | 9780 ng·h/mL | 5.83 mL/min/kg | 15.8 h | 885 ng/mL | – | –
2 | COc1cc2ncnc(Oc3ccc(NC(=O)c4cn5c6c(c(N7CCN(C)CC7)c(F)cc6c4=O)OCN5C)cc3F)c2cc1OC [TL4830039, N-(4-((6,7-dimethoxyquinazolin-4-yl)oxy)-3-fluorophenyl)-9-fluoro-3-methyl-10-(4-methylpiperazin-1-yl)-7-oxo-2,3-dihydro-7H-[1,3,4] oxadiazino[6,5,4-ij]quinoline-6-carboxamide] | 58 nM | 49.8% | 44.7% | 57.4% | 66.4% | 80.9% | 87.6% | 7.92% | 12200 ng·h/mL | 3800 ng·h/mL | 35.5 h | 219 ng/mL | 13000 ng·h/mL | 9600 ng·h/mL | 6.5 mL/min/kg | 12.7 h | 1140 ng/mL | – | –
3 | CC(C)(C)c1cc(NC(=O)Nc2ccc(-c3cn4c(n3)sc3cc(OCCN5CCOCC5)ccc34)cc2)no1 [AC220, reference compound] | – | – | – | – | – | – | – | – | – | – | – | – | – | – | – | – | – | 19.5 ± 2.7 nM | IC50 [5]: < 2 nM

Further lines, with some results ahead:

Row | IC50 [1] | Inhibition rate (%) against receptor tyrosine kinase FLT-3 ([2]; compound 10 nM, 0.01 µM) | inhibition at 0.01 µM ([2]; compound 10 nM) | Inhibition rate (%) against receptor tyrosine kinase FLT-3 ([2]; compound 100 nM, 0.1 µM) | inhibition at 0.1 µM ([2]; compound 100 nM) | Inhibition rate (%) against receptor tyrosine kinase FLT-3 ([2]; compound 1000 nM, 1 µM) | inhibition at 1 µM ([2]; compound 1000 nM) | bioavailability [3] | AUC(0-inf) [3, 6] | AUC(0-t) [3, 6] | half-life [3, 6] | Cmax [3, 6] | AUC(0-inf) [3, 7] | AUC(0-t) [3, 7] | clearance [3, 7] | half-life [3, 7] | Cmax [3, 7] | IC50 [4] | Structure (SMILES) | also measured
4 | 8 nM | 49.4% | 54.7% | 75.8% | 74% | 92.3% | 95.2% | 28% | 50300 ng·h/mL | 39700 ng·h/mL | 11 h | 4090 ng/mL | 28700 ng·h/mL | 28400 ng·h/mL | 3 mL/min/kg | 4.05 h | 13300 ng/mL | – | CCc1ccc2c(c1)c(=O)c(C(=O)Nc1ccc(Oc3ncnc4cc(OCCN5CCCC5)c(OC)cc34)c(F)c1)c(C)n2C [TL4830058, 6-ethyl-N-(3-fluoro-4-((6-methoxy-7-(2-(pyrrolidin-1-yl)ethoxy)quinazolin-4-yl)oxy)phenyl)-1,2-dimethyl-4-oxo-1,4-dihydroquinoline-3-carboxamide] | pharmacokinetic parameter, overall judgement ([3]; SD rats, hydrochlorides, in words): appropriate pharmacokinetic parameter
5 | 5 nM | – | – | – | – | – | – | – | – | – | – | – | – | – | – | – | – | 38.6 ± 18 nM | CCc1ccc2c(c1)c(=O)c(C(=O)Nc1ccc(Oc3ncnc4cc(OCCCOC)c(OC)cc34)c(F)c1)c(C)n2C [TL4830073, 6-ethyl-N-(3-fluoro-4-((6-methoxy-7-(3-methoxypropoxy)quinazolin-4-yl)oxy)phenyl)-1,2-dimethyl-4-oxo-1,4-dihydroquinoline-3-carboxamide] | inhibitory activity on AXL kinase ([1]; competitive experiment with ATP, in words): strong inhibitory activity
